These results are taken from ChEMBL document CHEMBL2010725, “Synthesis and Cardiac Imaging of (18)F-Ligands Selective for β1-Adrenoreceptors” (ACS Med Chem Lett, 2011).

A short description of data set [1]: Selectivity ratio of IC50 for adrenergic beta2 receptor to IC50 for adrenergic beta1 receptor.
Data set [2] has as its target Beta-1 adrenergic receptor (Homo sapiens, UniProt P08588). The experiment in a line: Displacement of [3H](-)-CGP-12177 from adrenergic beta1 receptor by cell based assay.
The subject of data set [3] is Heart. The experiment in a line: Biodistribution in Sprague-Dawley rat heart at 15 uCi after 30 mins by gamma counting. The class given is ADME, organism-based. The settings on record: in vivo, 0.5 h.
The nature of data set [4]: Drug uptake in Sprague-Dawley rat myocardium at 1 mCi after 60 mins by microPET analysis. The class given is ADME, tissue-based. The following applies: in vivo, 1 h.
The nature of data set [5]: Drug excretion in rat urine assessed as parent compound at 1 mCi/kg, iv after 30 mins by HPLC analysis. The class given is ADME, organism-based. The settings on record: read-out: Drug excretion.
The test system of data set [6] is Muscle tissue. Kind of data set: Biodistribution in Sprague-Dawley rat muscle at 15 uCi after 30 mins by gamma counting. It counts as ADME, organism-based. The following applies: in vivo, 0.5 h.
Data set [7] in a line: Drug uptake in Sprague-Dawley rat myocardium at 1 mCi after 30 mins by microPET analysis. The class given is ADME, tissue-based. The following applies: in vivo, 0.5 h.
Data set [8] concerns Liver. The experiment in a line: Drug uptake in Sprague-Dawley rat liver at 1 mCi after 60 mins by microPET analysis. The following applies: in vivo, 1 h. It counts as ADME, tissue-based.
For data set [9], the system named is Lung. The experiment in a line: Drug uptake in Sprague-Dawley rat lung after <5 mins by microPET analysis. It counts as ADME, tissue-based. The settings on record: in vivo.
Data set [10] deals with Spleen. Kind of data set: Biodistribution in Sprague-Dawley rat spleen at 15 uCi after 30 mins by gamma counting. The class given is ADME, organism-based. The settings on record: in vivo, 0.5 h.
The subject of data set [11] is Rattus norvegicus. Kind of data set: Drug metabolism in rat assessed as progressive loss of parent compound at 1 mCi/kg, iv after 30 mins by HPLC analysis. The class given is ADME, organism-based. The following applies: in vivo, 0.5 h.
Data set [12] deals with Liver. Kind of data set: Biodistribution in Sprague-Dawley rat liver at 15 uCi after 30 mins by gamma counting. The following applies: in vivo, 0.5 h. It counts as ADME, organism-based.
A short description of data set [13]: Drug uptake in Sprague-Dawley rat myocardium after <5 mins by microPET analysis. It counts as ADME, tissue-based. The settings on record: in vivo.
Data set [14] has as its system Rattus norvegicus. The experiment in a line: Drug metabolism in rat assessed as progressive loss of parent compound at 1 mCi/kg, iv after 2 mins by HPLC analysis. The class given is ADME, organism-based. The settings on record: in vivo.
Data set [15] has as its system Liver. The experiment in a line: Drug uptake in Sprague-Dawley rat liver at 1 mCi after 30 mins by microPET analysis. The class given is ADME, tissue-based. The following applies: in vivo, 0.5 h.
Data set [16] can be described thus: Ratio of drug level in lung to heart in Sprague-Dawley rat at 15 uCi after 30 mins by gamma counting. The settings on record: in vivo, 0.5 h.
Data set [17] concerns Lung. The experiment in a line: Biodistribution in Sprague-Dawley rat lung at 15 uCi after 30 mins by gamma counting. The settings on record: in vivo, 0.5 h. It counts as ADME, organism-based.
The subject of data set [18] is Kidney. The experiment in a line: Biodistribution in Sprague-Dawley rat kidney at 15 uCi after 30 mins by gamma counting. The following applies: in vivo, 0.5 h. The class given is ADME, organism-based.
Data set [19] concerns Femur. Kind of data set: Biodistribution in Sprague-Dawley rat femur at 15 uCi after 30 mins by gamma counting. It counts as ADME, organism-based. The following applies: in vivo, 0.5 h.
For data set [20], the system named is Liver. Kind of data set: Drug uptake in Sprague-Dawley rat liver after <5 mins by microPET analysis. It counts as ADME. The settings on record: in vivo.
Data set [21] has as its system Blood. The experiment in a line: Biodistribution in Sprague-Dawley rat blood at 15 uCi after 30 mins by gamma counting. It counts as ADME, organism-based. The following applies: in vivo, 0.5 h.

Chain of Beta-1 adrenergic receptor (P08588 whole entry): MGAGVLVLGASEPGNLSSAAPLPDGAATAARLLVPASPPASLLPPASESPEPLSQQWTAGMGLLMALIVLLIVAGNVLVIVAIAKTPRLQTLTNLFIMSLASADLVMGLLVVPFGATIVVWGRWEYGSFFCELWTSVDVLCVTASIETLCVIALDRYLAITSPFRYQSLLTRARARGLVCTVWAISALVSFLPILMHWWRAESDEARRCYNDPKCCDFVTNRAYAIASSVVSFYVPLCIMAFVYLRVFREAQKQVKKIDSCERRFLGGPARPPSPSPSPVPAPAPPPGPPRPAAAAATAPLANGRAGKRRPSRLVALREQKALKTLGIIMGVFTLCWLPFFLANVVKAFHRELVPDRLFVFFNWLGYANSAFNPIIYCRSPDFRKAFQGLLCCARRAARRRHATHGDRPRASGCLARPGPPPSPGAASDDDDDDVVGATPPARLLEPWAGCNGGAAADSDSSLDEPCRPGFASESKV

For `CC(CF)Nc1ccc(NC(=O)NCCNC[C@H](O)COc2ccccc2C#N)cc1` (stereo partly drawn), the Ratio IC50 in [1] worked out at 13. In data set [2], the IC50 is 1.5 nM.
For `N#Cc1ccccc1OC[C@@H](O)CNCCNC(=O)Nc1ccc(OCCCF)cc1`, in data set [1], the Ratio IC50 was determined as 65. In data set [2], this compound had an IC50 of 0.25 nM.
Consider `N#Cc1ccccc1OC[C@@H](O)CNCCCC(=O)Nc1ccc(F)nc1`, for which the Ratio IC50 in [1] amounted to 30. Besides, the IC50 in data set [2] was determined as 3 nM.
Consider `N#Cc1ccccc1OC[C@@H](O)CNCCNC(=O)N1CCOCC1`, for which the Ratio IC50 in data set [1] amounted to 4. This compound also showed an IC50 in [2] of 20 nM.
On the same counts, the results for `CCOc1ccc(NC(=O)NCCNC[C@H](O)COc2cccc(F)c2C#N)cc1` are 32 and 2 nM.
On the same counts, the results for `N#Cc1ccc(F)cc1OC[C@@H](O)CNCCNC(=O)Nc1ccc(C(=O)O)cc1` are 70 and 2 nM.
As to `N#Cc1ccccc1OC[C@@H](O)CNCCNS(=O)(=O)c1ccccc1F`, in [1], the Ratio IC50 was found to be 0.1. The same compound came in with an IC50 in data set [2] of 5 nM.
The matching figures for `N#Cc1ccccc1OC[C@@H](O)CNCCNC(=O)c1ccc(F)nc1`: 4 and 10 nM.
`N#Cc1ccccc1OC[C@@H](O)CNCCNC(=O)Nc1ccc(F)nc1`: the Ratio IC50 in data set [1] was determined as 345. In data set [2], the half-inhibitory concentration (IC50) came to 0.3 nM.
`N#Cc1ccccc1OC[C@@H](O)CNCCNC(=O)Cc1ccc(F)cc1`: in data set [1], the Ratio IC50 is 6. This compound gave an IC50 in [2] of 0.14 nM.
`N#Cc1ccccc1OC[C@@H](O)CNCCNC(=O)Nc1cccc(OCC[18F])c1`: the Drug uptake is on record as 0.62 % ID/g in data set [3]; “Not Active” in data set [4]; 0.1 % ID/g in data set [6]; “Active” in [7]; “Not Active” in [8]; “Active” in data set [9]. In addition, the Drug uptake is 0.52 % ID/g in [10]; 1.14 % ID/g in data set [12]; “Active” in data set [13]; “Active” in data set [15]; 0.79 % ID/g in data set [17]; 2.01 % ID/g in data set [18]. The Drug uptake is 0.16 % ID/g in [19], “Active” in [20] and 0.14 % ID/g in data set [21]. For the same compound, the dose excreted at 0.5 h in data set [5] was 76%. Also, the Drug metabolism in data set [11] came to 44%; in data set [14], 83%. Further, the Ratio in [16] is given as 1.27.
In the case of `N#Cc1ccccc1OC[C@@H](O)CNCCNC(=O)NC1CCN(CCF)CC1`, the Ratio IC50 in [1] was determined as 0.05. This compound also yielded an IC50 in [2] above 100 nM.
On the same counts, the results for `N#Cc1ccccc1OC[C@@H](O)CNCCNC(=O)Nc1ccc(I)nc1` are 723 and 0.05 nM.
For `N#Cc1ccccc1OC[C@@H](O)CNCCNC(=O)Nc1ccc(OCCF)cc1`, the Ratio IC50 in data set [1] was determined as 448. The compound also displayed an IC50 in data set [2] of 0.08 nM.
Regarding `N#Cc1c(F)cccc1OC[C@@H](O)CNCCNC(=O)Nc1ccc(C(=O)O)cc1`, the Ratio IC50 in [1] amounted to 164. Also, in data set [2], the concentration for half-maximal inhibition (IC50) worked out at 21 nM.
`N#Cc1ccccc1OC[C@@H](O)CNCCNC(=O)Nc1cccc(OCCF)c1`: the Ratio IC50 in data set [1] turned out to be 265. Also, the IC50 in data set [2] came out at 0.04 nM.
On the same counts, the results for `N#Cc1ccccc1OC[C@@H](O)CNCCNC(=O)Nc1ccc(OCCF)nc1` are 50 and 0.1 nM.
In the case of `N#Cc1ccccc1OC[C@@H](O)CNCCNC(=O)Nc1ccccc1F`, the Ratio IC50 in data set [1] was 69. Besides, in [2], the IC50 came to 0.2 nM.
With `N#Cc1ccccc1OC[C@@H](O)CNCCNC(=O)Nc1nnn(CCF)n1`, the Ratio IC50 in data set [1] came out at 10. The IC50 in [2] is 10 nM.
With `N#Cc1ccccc1OC[C@@H](O)CNCCNC(=O)Nc1cnc(Br)cn1`, the Ratio IC50 in data set [1] stood at 163. In data set [2], this compound showed an IC50 of 0.35 nM.
Regarding `N#Cc1ccccc1OC[C@@H](O)CNCCNC(=O)Nc1nccs1`, the Ratio IC50 in data set [1] was found to be 8. The IC50 in [2] was found to be 26 nM.
As to `N#Cc1ccccc1OC[C@@H](O)CNCCNC(=O)Nc1ccc(Br)nc1`, in data set [1], the Ratio IC50 was above 1000. The IC50 in data set [2] was 0.05 nM.
For `N#Cc1ccccc1OC[C@@H](O)CNCCNC(=O)Nc1ccc(OCC[18F])cc1`, the Drug uptake is listed as 0.48 % ID/g in data set [3]; “Not Active” in [4]; 0.08 % ID/g in data set [6]; “Active” in data set [7]; “Not Active” in [8]; 0.37 % ID/g in [10]. The Drug uptake is given as 1.14 % ID/g in [12]; “Active” in data set [15]; 0.97 % ID/g in [17]; 1.26 % ID/g in [18]; 0.27 % ID/g in data set [19]; 0.18 % ID/g in data set [21]. For the same compound, the Ratio in data set [16] is 2.
`N#Cc1ccccc1OC[C@@H](O)CNCCNC(=O)Nc1ccc(F)cc1`: the Ratio IC50 in data set [1] turned out to be 150. Further, the IC50 in [2] was 0.1 nM.
Regarding `N#Cc1ccccc1OC[C@@H](O)CNCCNC(=O)Nc1ccc(C(=O)O)c(F)c1`, the Ratio IC50 in data set [1] amounted to 511. In addition, in [2], the IC50 was 1 nM.
`N#Cc1ccccc1OC[C@@H](O)CNCCNC(=O)Nc1ccc(OCCC[18F])cc1`: the Drug uptake in data set [3] was 0.42 % ID/g; in [4], “Not Active”; in data set [6], 0.09 % ID/g; in data set [7] it was “Active”; in [8], “Not Active”; in data set [10], 0.4 % ID/g. Further, the Drug uptake in [12] is 1.03 % ID/g; in data set [15], “Active”; in [17] it was 0.63 % ID/g; in data set [18] it was 1.38 % ID/g; in data set [19] it was 0.63 % ID/g; in data set [21], 0.21 % ID/g. Moreover, in [16], the Ratio is 1.5.
With `COc1ccc(NC(=O)NCCNC[C@H](O)COc2ccccc2C#N)cc1`, the Ratio IC50 in data set [1] amounted to 145. Further, the IC50 in [2] is 0.11 nM.
